Measured values taken from patent US8188221B2, “Peptide homing to brain tumors” (Burnham Institute for Medical Research, priority 2008, dated 2012).
Ends that are not written are not given here.

Key:
Assay type in all cases: in vivo, mice
[1] = tested on: intracranial HIF-1alfa KO (HIFko) tumor; test: Homing of phage displaying CGLSGLGVA to intracranial islet tumors (phage titration of organs); settings: peptide displayed on phage, 10^9 pfu into tail vein, 15 min circulation, perfusion, FIG. 1
Experimental: CGLSGLGVA or a control phage (10^9 pfu=plaque forming unit) were injected into the tail vein of intracranial HIF-1alfa KO (HIFko) tumor-bearing mice. After 15 min of circulation the mice were perfused through the heart with saline to remove unbound phage followed by excision of tumor containing brain, normal brain, liver, kidney and lungs. The number of phage homed to those organs were determined by titration.

[2] = tested on: subcutaneous HIFko tumor; test: Homing of fluorescein-conjugated peptide to subcutaneous HIFko tumors (histology); settings: 10 μg into tail vein, 60 min circulation, FIG. 4A
Experimental: Fluorescein-conjugated CGLSGLGVA peptide (10 μg) was injected into the tail vein of subcutaneous HIFko tumor-bearing mice. After 60 min of circulation tumor was excised and prepared for histological analysis. Peptide was visualized by using an antibody against FITC (rabbit anti-FITC, Zymed Laboratories). FIG. 4A. […] FIG. 4B. Same microscopic field as in FIG. 4A. Nuclei were visualized by DAPI staining (blue).

[3] = tested on: intracranial HIFko islet tumors; test: Homing of fluorescein-conjugated peptide to intracranial HIFko islet tumors (histology, anti-FITC); settings: 10 μg into tail vein, 60 min circulation
Experimental: Fluorescein-conjugated CGLSGLGVA peptide (10 μg) was injected into tail vein of HIFko tumor-bearing mice. After 60 min of circulation tumor-containing brain was excised and prepared for histological analysis. Peptide was visualized by using an antibody against fluorescein (rabbit anti-FITC, Zymed Laboratories). […] Presence of the tumor cells was confirmed by staining for the SV40 T-antigen specific for tumor cells from a subsequent section (green in FIG. 2B). FIGS. 2C and 2D show the same microscopic field as 2A and 2B. Nuclei were visualized by DAPI staining (blue).
(§1) Fluorescein-conjugated CGLSGLGVA peptide (10 μg) was injected into tail vein of murine HIFko or human U87MG intracranial xenograft bearing mice. After 60 min of circulation tumor-containing brain was excised and prepared for histological analysis. Peptide was visualized by using an antibody against fluorescein (rabbit anti-FITC, Zymed Laboratories). […] Nuclei were visualized by DAPI staining (blue).

[4] = tested on: VEGF overexpressing (VEGF+) tumor; test: Homing of fluorescein-conjugated peptide to intracranial VEGF-overexpressing tumors (histology); settings: 10 μg into tail vein, 60 min circulation, FIG. 3A
Experimental: Fluorescein-conjugated CGLSGLGVA peptide (10 μg) was injected into the tail vein of VEGF overexpressing (VEGF+) tumor-bearing mice. After 60 min of circulation tumor was excised and prepared for histological analysis. Peptide was visualized by using an antibody against fluorescein (rabbit anti-FITC, Zymed Laboratories). FIG. 3A. […] 3B: Same microscopic field as in 3A. Nuclei were visualized by DAPI staining (blue).

[5] = tested on: human U87MG intracranial xenograft; test: Homing and localization of fluorescein-conjugated peptide in intracranial U87MG tumors (histology, PECAM-1 co-staining)
Experimental: as §1
Fluorescein-conjugated CGLSGLGVA peptide (10 μg) was injected into the tail vein of intracranial human U87MG tumor-bearing mice. After 60 min of circulation tumor-containing brain was excised and prepared for histological analysis. Peptide was visualized by using an antibody against fluorescein (rabbit anti-FITC, Zymed Laboratories). […] Magnification in FIG. 6A, 200×; FIG. 6B, 400×.

Substance | homing of phage to tumor containing brain versus normal brain, liver, kidney and lungs [1] | detection of peptide in tumor tissue [2] | detection of peptide in tumor islets and surrounding normal brain ([3]; FIG. 2) | homing pattern of peptide in tumor ([3]; murine HIFko intracranial tumor, FIG. 5A) | detection of peptide in tumor tissue [4] | homing to tumor ([5]; U87MG human glioblastoma xenografts, intravenous injection into the tail vein) | homing pattern of peptide in tumor ([5]; human U87MG intracranial xenograft, 10 μg into tail vein, 60 min circulation, FIG. 5B) | colocalization with endothelial cell marker PECAM-1 ([5]; intracranial U87MG tumor, 10 μg into tail vein, 60 min circulation, FIG. 6)
CGLSGLGVA [novel nine amino acid long tumor-homing peptide] | very specifically homes to the intracranial, early stage astrocytoma model (HIFko) |  |  |  |  |  |  | 
Fluorescein-conjugated CGLSGLGVA peptide: CGLSGLGVA peptide conjugated to fluorescein, detected with anti-FITC antibody (also: fluorescein conjugate) |  | not detected in the tumor tissue | detected only in the tumor islets and not in the surrounding normal brain tissue | detected diffusively in the whole tumor tissue | not detected in the tumor tissue | homes to the U87MG human glioblastoma xenografts | peptide distribution resembled that of blood vessels | did not colocalize with the blood vessel marker PECAM-1
